Test results from publication PMC7000521, “Hazard Characterization of Synthetic Cathinones Using Viability, Monoamine Reuptake, and Neuronal Activity Assays” (Frontiers in Neuroscience, 2020).
Where two headings read alike, the source gives them in different places. Marks after values point to notes of the source that are not given here.

Columns and labels:
[1] = test system: rat primary cortical cultures; assay: MEA recordings of spontaneous neuronal network activity; assay type: cell-based; conditions: for IC50: value [CI]
Procedure: Rat pups born of timed-pregnant Wistar rats (Envigo, Horst, Netherlands) were sacrificed on postnatal day 0–1 to prepare cortical cultures grown on MEA plates as described previously ([Zwartsen et al., 2018], [2019]). Briefly, a 50 μL drop of cell suspension was added to each well (1 × 10^5 cells/well) of a 48-well MEA plate (Axion BioSystems Inc., Atlanta, GA, United States, M768-GL1-30Pt200) coated with 0.1% polyethyleneimine (PEI). After 2 h, 450 μL dissection medium was added to each well. The day after the isolation (day in vitro 1; DIV1), 450 μL/well dissection medium was replaced with 450 μL/well glutamate medium. At DIV4, 450 μL/well glutamate medium was replaced with 450 μL/well FBS medium (for medium supplements see [Zwartsen et al., 2018], [2019]). Cultures were kept in FBS medium at 37°C, 5% CO2/95% air atmosphere until use at DIV9-10.
Microelectrode array recordings were performed as described in [Zwartsen et al. (2019)]. In short, neuronal activity was measured using a Maestro 768-channel amplifier (Axion BioSystems Inc., Atlanta, GA, United States). Baseline spontaneous neuronal activity was recorded for 30 min at 37°C, after which wells were exposed to selected synthetic cathinones under sterile conditions. Next, neuronal activity was determined during a 30 min “acute exposure” recording. […] Next, exposure medium was replaced with fresh FBS medium and the plate was incubated for 19 h at 37°C, until the 30 min “washout” recording, i.e., 24 h after the start of the exposure.
Effects of 3-MMC, 4-MMC, 4-MEC, pentedrone, 3-MMCinternet, and 4-MECinternet were tested at 1–1000 μM (final concentration). At the day of exposure, stocks and dilutions were freshly made in NB-A FBS medium (for medium supplements see [Zwartsen et al., 2019]). Data on methylone, α-PVP, and MDPV exposure have been published previously in [Zwartsen et al. (2019)]. For each experimental condition, primary cultures from two to three different isolations were used and tested in four to five plates (Nplates). The number of wells (nwells) represents the number of replicates per condition.
Microelectrode array data were analyzed as described in [Zwartsen et al. (2019)]. In short, parameters of interest after acute exposure were expressed as a percentage of the parameters prior to exposure to obtain a treatment ratio for each well (paired comparison; parameterexposure/parameterbaseline as % of control wells). The parameters after prolonged exposure and washout were also expressed as a percentage of the baseline parameters. Next, treatment ratios were grouped per parameter, condition, drug [e.g., mean spike rate (MSR) 10 μM 3-MMC] and exposure scenario (acute, prolonged, or washout).
Outliers (>mean ± 2×SD) for MSR (5.0%) were used to exclude wells on all parameters. Outliers for mean burst rate (MBR; 2.6%) and mean network burst rate (MNBR; 1.4%) were used to exclude wells on specific parameters (burst, network burst, and synchronicity parameters, or network burst and synchronicity parameters, respectively). Finally, the acute, prolonged, and washout control treatment ratios were set to 100% and treatment ratios of exposed wells were normalized to the average treatment ratio of medium control wells of the corresponding parameter and exposure scenario. Treatment ratios of exposed wells were averaged per parameter (e.g., MSR), condition (e.g., 100 μM), drug (e.g., methylone), and exposure scenario (e.g., acute exposure) and used for further statistical analyses [see [Zwartsen et al. (2019)] for more details on criteria, parameters, and exposure scenarios]. Neuronal activity (as % of control) is expressed as mean ± SEM of nwells from Nplates. As the spike, burst, and network burst rates were among the most sensitive parameters, these parameters are presented in the manuscript. Additional parameters are presented in Supplementary Figure 2.
Concentration–response curves were made for transporter, MEA, and cell viability assays. […]

hDAT [2] = target: T1, hDAT (Homo sapiens, UniProt Q01959); assay: Monoamine uptake assay (fluorescent substrate), hDAT; assay type: cell-based
T1 construct: expressed in transfected cells
T1 sequence (Q01959 whole entry): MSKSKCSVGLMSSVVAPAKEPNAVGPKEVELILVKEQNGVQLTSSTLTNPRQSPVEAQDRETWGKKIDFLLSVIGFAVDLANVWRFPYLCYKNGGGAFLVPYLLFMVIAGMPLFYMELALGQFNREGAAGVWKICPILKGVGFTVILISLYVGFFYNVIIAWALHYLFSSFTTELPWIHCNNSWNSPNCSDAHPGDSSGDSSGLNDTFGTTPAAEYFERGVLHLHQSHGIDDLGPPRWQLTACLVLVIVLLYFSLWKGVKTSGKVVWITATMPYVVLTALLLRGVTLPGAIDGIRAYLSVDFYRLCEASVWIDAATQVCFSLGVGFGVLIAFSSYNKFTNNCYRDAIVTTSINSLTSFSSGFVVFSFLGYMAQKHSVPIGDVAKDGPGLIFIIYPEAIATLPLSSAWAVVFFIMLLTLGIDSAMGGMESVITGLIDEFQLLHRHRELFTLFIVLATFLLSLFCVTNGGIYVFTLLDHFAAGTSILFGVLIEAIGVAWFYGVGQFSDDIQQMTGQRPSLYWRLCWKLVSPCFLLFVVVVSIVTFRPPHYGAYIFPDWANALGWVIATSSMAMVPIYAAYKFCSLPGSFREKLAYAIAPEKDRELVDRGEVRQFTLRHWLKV
Procedure: (§1) Human embryonic kidney (HEK) 293 cells stably expressing human DAT, NET, or SERT (kindly provided by Dr. Hoener from F. Hoffmann-La Roche Ltd., Basel, Switzerland) were cultured as described in [Zwartsen et al. (2017)].
(§2) Uptake activity of hNET, hDAT, and hSERT was measured using the Neurotransmitter Transporter Uptake Assay Kit from MDS Analytical Technologies (Sunnyvale, CA, United States) as described in detail previously ([Zwartsen et al., 2017]). The kit contained a mixture consisting of a fluorescent substrate, which resembles the biogenic amine neurotransmitters, and a masking dye that extinguishes extracellular fluorescence. Uptake of the fluorescent substrate, a measure of neurotransmitter transporter function, increases intracellular fluorescence, while extracellular fluorescence is blocked by the masking dye ([Jorgensen et al., 2008]). The mixture was dissolved in Hank’s Balanced Salt Solution (1×) (HBSS) with 20 mM HEPES, and kept up to 1 week at −20°C.
On day 0, HEK 293 cells were seeded (60,000 cells/well) in clear-bottom black-walled 96-well plates coated with poly-L-lysine (PLL, 50 mg/L). On day 1, cells were pre-incubated with the fluorescent substrate mixture (95 μL/well, comprising of the fluorescent substrate and the extracellular masking dye, dissolved in HBSS) for 12 min (t = −12 to t = 0). During incubation, intracellular fluorescence was measured every 3 min. […] Stock solutions and dilutions were freshly prepared in HBSS (1×) at the day of usage. Effects of 3-MMC, 4-MMC, 4-MEC, methylone, pentedrone, MDPV, 3-MMCinternet, and 4-MECinternet were measured at final concentrations of 0.03–300/1000 μM. Fluorescence was measured with a microplate reader (Tecan Infinite M200 microplate; Tecan Trading Männedorf, Switzerland) at 37°C at 430/515 nm excitation/emission wavelength. For more experimental detail see [Zwartsen et al. (2017)].
Data from the monoamine uptake assay were analyzed as described by [Zwartsen et al. (2017)], with minor modifications. Data for α-PVP were reanalyzed from [Zwartsen et al. (2017)]. In short, the fluorescence of each well was background corrected and uptake was determined per well by calculating the change in fluorescence (ΔFU) at 12 min after drug exposure (t = 12) compared to the fluorescence at the start of exposure (t = 0), as a percentage of the fluorescence at the start of exposure (%ΔFU = ((FUt = 12−FUt = 0)/FUt = 0)∗100%; see [Zwartsen et al., 2017]). Plate-matched control values for each compound (e.g., methylone) above or below two times the standard deviation of the average normalized control value were considered outliers and were removed from analysis (4.8%). Thereafter, uptake in drug-exposed wells was expressed as a percentage of control wells on the same plate and all uptake values were scaled between 0 and 100%. Outliers (>mean ± 2×SD) in exposed groups were removed (2.7%) and uptake (% compared to control) was expressed as mean ± SEM of nwells from Nplates.
Concentration–response curves were made for transporter, MEA, and cell viability assays. To calculate IC50 values, a four-parameter logistic curve with a variable slope was used (Y = Bottom + (Top−Bottom)/(1 + 10∧((LogIC50 − X) ^∗ HillSlo pe))) (GraphPad Prism, version 7.04). When applicable, significance between concentrations and controls (for MEA) and different IC50 values [between different transporters (DAT/NET/SERT), MEA parameters (MSR/MBR/MNBR), exposure settings (acute/prolonged/recovery), and drug grade (pharmaceutical/internet)] were determined using unpaired t-tests (two values) or one-way ANOVA’s followed by a post hoc Dunnet’s test (>2 values). All statistical tests were performed using GraphPad Prism. For recovery of neuronal activity, IC50 values and 95% confidence intervals could not always be determined and are reported as higher than the highest concentration tested (e.g., >1000 μM). […]

hSERT = target: T2, hSERT (Homo sapiens, UniProt P31645); conditions: cited from earlier work
T2 construct: expressed in transfected cells
T2 sequence (P31645 whole entry): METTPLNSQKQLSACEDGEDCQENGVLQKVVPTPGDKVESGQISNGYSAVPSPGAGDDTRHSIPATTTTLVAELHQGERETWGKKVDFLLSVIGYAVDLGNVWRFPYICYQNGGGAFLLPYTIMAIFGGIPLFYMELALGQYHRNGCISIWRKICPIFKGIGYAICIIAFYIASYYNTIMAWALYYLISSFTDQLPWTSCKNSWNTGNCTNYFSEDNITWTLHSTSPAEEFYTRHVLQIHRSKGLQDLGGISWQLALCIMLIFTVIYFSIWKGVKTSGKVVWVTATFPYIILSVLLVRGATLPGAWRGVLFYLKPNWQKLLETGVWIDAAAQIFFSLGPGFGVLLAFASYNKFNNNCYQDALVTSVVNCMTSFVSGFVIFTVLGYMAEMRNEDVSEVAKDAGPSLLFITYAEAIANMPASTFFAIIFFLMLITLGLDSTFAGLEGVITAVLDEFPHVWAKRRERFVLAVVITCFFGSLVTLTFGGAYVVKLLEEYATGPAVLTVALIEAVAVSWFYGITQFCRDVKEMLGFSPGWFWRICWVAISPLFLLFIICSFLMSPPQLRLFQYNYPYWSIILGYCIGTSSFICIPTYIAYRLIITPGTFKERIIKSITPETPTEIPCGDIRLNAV

[3] = Brain partitioning factor (BPF); conditions: brain concentration divided by blood/serum/plasma concentration from human post mortem reports or animal studies (rat/mice)
Source text: (§3) To correlate reported effect concentrations to expected concentrations in the human brain during recreational use a brain partitioning factor (BPF; […]) was applied, as actual human brain concentrations following recreational drug use are unknown. Expected concentrations in the human brain were estimated by multiplying recreational human blood/serum/plasma concentrations with the BPF. Human recreational blood, serum, or plasma levels were obtained from literature (driving under the influence or accidental non-fatal intoxications). The BPF was determined for each drug by dividing the brain concentration by the blood/serum/plasma concentration found in human post mortem reports, or animal studies (rat/mice) when human data were insufficient.

[4] = Estimated human brain concentrations and comparison with IC50 values; conditions: recreational human blood/serum/plasma concentration multiplied with BPF
Source text: as §3
To identify the relevance of effects and potentially harmful drugs, effect concentrations (IC50 values) were related to the estimated human brain concentration during recreational use [(brain), Table 2]. By comparing these concentrations, the most relevant neurotoxic mechanisms of cathinones can be identified. […] Only 4-MEC and MDPV inhibited neuronal activity during acute exposure at concentrations within (MDPV) or close to (4-MEC) the estimated brain concentration.

[5] = recreational use (driving under the influence or accidental non-fatal intoxications); ref literature; cited from earlier work
hNET = target: T3, hNET (Homo sapiens, UniProt P23975); assay: Monoamine uptake assay (fluorescent substrate), hNET; assay type: cell-based
T3 construct: expressed in transfected cells
T3 sequence (P23975 whole entry): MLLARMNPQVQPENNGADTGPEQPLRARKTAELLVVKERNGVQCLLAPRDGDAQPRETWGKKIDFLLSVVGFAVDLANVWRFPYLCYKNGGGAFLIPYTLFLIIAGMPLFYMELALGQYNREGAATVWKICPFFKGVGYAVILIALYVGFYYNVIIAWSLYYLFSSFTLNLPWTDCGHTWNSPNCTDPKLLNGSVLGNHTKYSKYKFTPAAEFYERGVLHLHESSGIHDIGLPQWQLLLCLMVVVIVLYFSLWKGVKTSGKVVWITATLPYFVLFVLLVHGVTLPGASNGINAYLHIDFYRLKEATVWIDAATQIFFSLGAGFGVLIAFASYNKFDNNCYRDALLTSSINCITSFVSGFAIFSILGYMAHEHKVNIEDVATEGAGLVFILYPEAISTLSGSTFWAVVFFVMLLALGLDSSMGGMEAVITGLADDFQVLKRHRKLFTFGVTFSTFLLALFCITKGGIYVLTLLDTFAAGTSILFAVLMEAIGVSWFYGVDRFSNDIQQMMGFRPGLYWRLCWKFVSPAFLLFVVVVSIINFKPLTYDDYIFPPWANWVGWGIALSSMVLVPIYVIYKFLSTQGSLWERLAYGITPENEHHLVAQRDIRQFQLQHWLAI
Procedure: as §1
as §2, with “The mixture was dissolved in Hank’s Balanced Salt Solution (1×) (HBSS) with 20 mM HEPES, and kept up to 1 week at −20°C.” left out
On day 0, HEK 293 cells were seeded (60,000 cells/well) in clear-bottom black-walled 96-well plates coated with poly-L-lysine (PLL, 50 mg/L). […] During incubation, intracellular fluorescence was measured every 3 min. […] Effects of 3-MMC, 4-MMC, 4-MEC, methylone, pentedrone, MDPV, 3-MMCinternet, and 4-MECinternet were measured at final concentrations of 0.03–300/1000 μM. Fluorescence was measured with a microplate reader (Tecan Infinite M200 microplate; Tecan Trading Männedorf, Switzerland) at 37°C at 430/515 nm excitation/emission wavelength. […]

[6] = test system: rat primary cortical cultures; set-up: method as in Zwartsen et al., 2019; conditions: 2019, cited from earlier work; for IC50: value [CI], published previously ref Zwartsen et al.
hDAT [7] = target: T1, hDAT; set-up: method as in Zwartsen et al., 2017; conditions: read-out: Transporter inhibition IC50, hDAT; HEK 293 cells; value [CI]; reanalyzed from previously published data ref Zwartsen et al., 2017; cited from earlier work
[8] = 19 h washout, 24 h after start of exposure, read-out: Neuronal activity IC50, mean burst rate (MBR), recovery
[9] = 19 h washout, 24 h after start of exposure, read-out: Neuronal activity IC50, mean network burst rate (MNBR), recovery
[10] = acute exposure 30 min, read-out: Neuronal activity IC50, mean network burst rate (MNBR), acute
[11] = acute exposure 30 min, read-out: Neuronal activity IC50, mean burst rate (MBR), acute
[12] = acute exposure 30 min, read-out: Neuronal activity IC50, mean spike rate (MSR), acute
[13] = washout, 24 h after start of exposure, read-out: Neuronal activity IC50, mean burst rate (MBR), recovery
[14] = washout, 24 h after start of exposure, read-out: Neuronal activity IC50, mean network burst rate (MNBR), recovery
[15] = washout, 24 h after start of exposure, read-out: Neuronal activity IC50, mean spike rate (MSR), recovery

With `CNC(C)C(=O)c1cccc(C)c1` (stereo not drawn) [3-MMCinternet] the IC50 [1, 8] was > 1000 µM, the IC50 [1, 9] was > 1000 µM and the IC50 [1, 10] was 57 µM.
With `CCNC(C)C(=O)c1ccc(C)cc1` (stereo not drawn) [4-MECinternet] the IC50 [1, 8] was > 1000 µM, the IC50 [1, 9] was > 1000 µM and the IC50 [1, 11] was 79 µM. The IC50 [1, 10] was 79 µM, the IC50 [1, 12] was 70 µM and the IC50 (hDAT [2]; HEK 293 cells, 37°C, uptake at 12 min after drug exposure, value [CI], read-out: Transporter inhibition IC50, hDAT) was 1.7 µM.
For `CNC(C)Cc1ccc2c(c1)OCO2` (stereo not drawn) [MDMA, 3,4-methylenedioxymethamphetamine], the “Increase in potency to inhibit hSERT” value (hSERT) is given as “threefold”.
With `CNC(C)C(=O)c1ccc2c(c1)OCO2` (stereo not drawn) [Methylone, 1-(1,3-benzodioxol-5-yl)-2-(methylamino)propan-1-one] the “Brain partitioning factor (BPF)” value [3] was 1.4–4.5^5,^–6,^7, the “Estimated human (brain) concentration” value [4] was 0.01 to 81 µM and the IC50 (hDAT [2]) was 2 µM. The “Human (serum/blood/plasma) concentration” value [5] was 0.01–18^a,d,g,h μM, the IC50 (hNET) was 1.7 µM and the IC50 [6, 11] was 266 µM. The IC50 [6, 10] was 323 µM, the IC50 [6, 12] was 244 µM and the “Reduction of potency to inhibit neuronal activity compared to MDMA” value ([6]; methylone versus MDMA, ref Zwartsen et al.) was “threefold”. The IC50 ([6]; prolonged exposure 4.5 h, read-out: Neuronal activity IC50, mean burst rate (MBR), prolonged) was 322 µM, the IC50 ([6]; prolonged exposure 4.5 h, read-out: Neuronal activity IC50, mean network burst rate (MNBR), prolonged) was 362 µM and the IC50 ([6]; prolonged exposure 4.5 h, read-out: Neuronal activity IC50, mean spike rate (MSR), prolonged) was 283 µM. The IC50 [6, 13] was > 1000 µM, the IC50 [6, 14] was > 1000 µM and the IC50 [6, 15] was > 1000 µM.
For `CCCC(C(=O)c1ccccc1)N1CCCC1` (stereo not drawn) [α-PVP, α-pyrrolidinovalerophenone], the “Increased potency to inhibit neuronal activity (MSR, MBR, and MNBR) compared to cathinones lacking the lengthened alkyl chain” value ([1]; acute and prolonged exposure) is given as “two to fourfold”, the IC50 (hDAT [7]) is given as 0.2 µM and the “Brain partitioning factor (BPF)” value [3] is given as 0.1–1.8^4,8,9,10. For the same compound, the “Estimated human (brain) concentration” value [4] was 0.001 to 5.0 µM, the “Human (serum/blood/plasma) concentration” value [5] was 0.01–2.8^b,j,K μM and the IC50 [6, 11] was 33 µM. The IC50 [6, 10] was 33 µM, the IC50 [6, 12] was 26 µM and the IC50 [6, 13] was > 300 µM. For the same compound, the IC50 [6, 14] was > 300 µM and the IC50 [6, 15] was > 300 µM.
